# Measurements published in PMC10890321, “Identification of Mortalin as the Main Interactor of Mycalin A, a Poly-Brominated C-15 Acetogenin Sponge Metabolite, by MS-Based Proteomics” (Marine Drugs, 2024).
# Target: T1, mortalin (GRP75, mitochondrial Stress-70 protein) (Homo sapiens, UniProt P38646)
# T1 construct: gene HSPA9
# Assay: SPR competition (mortalin pre-incubated with MKT-077, injected over immobilized p53)
# Type: binding
# T1 sequence (P38646 47-679): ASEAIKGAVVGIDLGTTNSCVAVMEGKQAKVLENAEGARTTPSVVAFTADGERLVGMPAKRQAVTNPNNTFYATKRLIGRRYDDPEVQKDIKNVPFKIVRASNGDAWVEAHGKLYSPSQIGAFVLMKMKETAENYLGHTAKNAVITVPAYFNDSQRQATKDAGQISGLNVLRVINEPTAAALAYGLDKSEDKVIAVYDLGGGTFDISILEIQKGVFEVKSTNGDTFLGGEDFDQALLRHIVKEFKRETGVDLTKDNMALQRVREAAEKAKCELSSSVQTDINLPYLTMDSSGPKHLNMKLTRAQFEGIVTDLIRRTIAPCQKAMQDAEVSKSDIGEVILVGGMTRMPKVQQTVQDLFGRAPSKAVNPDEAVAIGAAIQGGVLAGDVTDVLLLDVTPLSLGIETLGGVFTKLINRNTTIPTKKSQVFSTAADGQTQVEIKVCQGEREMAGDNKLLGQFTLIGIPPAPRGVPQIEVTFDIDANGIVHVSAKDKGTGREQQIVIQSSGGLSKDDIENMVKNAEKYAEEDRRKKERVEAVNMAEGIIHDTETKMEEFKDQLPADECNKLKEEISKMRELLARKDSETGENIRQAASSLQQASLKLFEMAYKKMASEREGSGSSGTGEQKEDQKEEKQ
# T1 sequence (P04637 whole entry partner): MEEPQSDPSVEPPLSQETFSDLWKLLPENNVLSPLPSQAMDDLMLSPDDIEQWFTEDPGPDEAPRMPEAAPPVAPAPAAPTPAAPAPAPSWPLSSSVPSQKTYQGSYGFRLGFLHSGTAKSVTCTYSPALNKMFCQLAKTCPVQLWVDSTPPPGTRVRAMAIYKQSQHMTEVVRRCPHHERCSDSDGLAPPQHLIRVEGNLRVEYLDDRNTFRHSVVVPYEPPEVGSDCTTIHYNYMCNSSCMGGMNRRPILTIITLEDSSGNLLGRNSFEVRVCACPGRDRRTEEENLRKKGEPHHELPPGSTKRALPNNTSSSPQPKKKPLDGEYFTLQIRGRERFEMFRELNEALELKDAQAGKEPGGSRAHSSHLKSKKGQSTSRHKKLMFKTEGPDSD
smiles,measurement,value
CCn1c(=O)/c(=C2\Sc3ccccc3N2C)s/c1=C\c1cccc[n+]1CC [MKT-077],"SPR competition (mortalin pre-incubated with MKT-077, injected over immobilized)",843.4 nM
